Results as given in US20180057505A1, “BICYCLIC HETEROARYL COMPOUNDS USEFUL AS INHIBITORS OF THE PAR-2 SIGNALING PATHWAY” (VERTEX PHARMACEUTICALS INCORPORATED, priority 2015, published 2018).

Experiments:
Format in all cases: cell-based
PAR2 (HT-29 cells) [1] = target: T1, PAR2 (HT-29 cells) (Homo sapiens, UniProt P55085); assay: Ca FLIPR TETRA assay, ANTAGONIST mode, activator 8 μM SLIGKV; settings: HT-29 cells, activator 8 μM SLIGKV; maximal antagonist concentration per Method (A: 0.1, 1 or 2 μM; B: 50 μM)
T1 construct: host or cells: HT-29
T1 sequence (P55085 26-397): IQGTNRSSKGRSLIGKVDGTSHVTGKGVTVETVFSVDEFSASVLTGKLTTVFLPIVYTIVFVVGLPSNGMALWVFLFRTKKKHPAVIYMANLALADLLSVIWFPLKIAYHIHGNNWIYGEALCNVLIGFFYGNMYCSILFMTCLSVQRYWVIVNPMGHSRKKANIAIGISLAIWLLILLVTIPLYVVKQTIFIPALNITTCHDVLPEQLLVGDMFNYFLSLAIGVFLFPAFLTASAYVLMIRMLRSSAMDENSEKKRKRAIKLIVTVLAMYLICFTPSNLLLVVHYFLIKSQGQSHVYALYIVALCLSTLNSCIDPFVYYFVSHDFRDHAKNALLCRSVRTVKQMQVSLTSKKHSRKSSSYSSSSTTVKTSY
Summary of the method: (§1)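 Inhibition of agonist-evoked calcium signals was measured in human HT-29 colon cells cultured overnight in 1% FBS McCoy's medium. Test compounds preincubated 30 min at r.t.; activators at final concentrations as stated for each readout.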

[2] = test system: Thrombin-stimulated Ca2+ response in HT-29 cells; assay: Ca FLIPR TETRA assay, ANTAGONIST mode, activator 1 U/mL Thrombin; settings: Homo sapiens; HT-29 cells, activator 1 U/mL Thrombin
Summary of the method: as §1

PAR2 (HT-29 cells) [3] = target: T1, PAR2 (HT-29 cells); assay: Ca FLIPR TETRA assay, ANTAGONIST mode, activator 3.1 U/mL trypsin; settings: HT-29 cells, activator 3.1 U/mL trypsin; maximal antagonist concentration per Method (A: 0.1, 1 or 2 μM; B: 50 μM)
Summary of the method: as §1

[4] = test system: UTP-stimulated Ca2+ response in HT-29 cells; assay: Ca FLIPR TETRA assay, ANTAGONIST mode, activator 0.6 μM UTP; settings: Homo sapiens; HT-29 cells, activator 0.6 μM UTP
Summary of the method: as §1

IC50 (PAR2 (HT-29 cells) [1]) | IC50 [2] | IC50 (PAR2 (HT-29 cells) [3]) | IC50 [4] | SMILES
13 nM | > 2000 nM | 24 nM | > 2000 nM | CC(C)(C)c1cc(C2CCC(F)(F)CC2)nc2cc(C(=O)N3CCN(C(=O)[C@H]4CC[C@@H](O)CC4)CC3(C)C)oc12 [Example I-225]
76 nM | > 2000 nM | 230 nM | > 2000 nM | CNS(=O)(=O)CCC(=O)N1CCN(C(=O)c2cc3nc(C4CCC(F)(F)CC4)cc(C(C)(C)C)c3o2)C(C)(C)C1 [Example I-226]
0.8 nM | > 2000 nM | 1.2 nM | > 2000 nM | Cc1n[nH]c(C(=O)N2CCN(C(=O)c3cc4nc(C5CCC(C)(C)CC5)cc(C(C)(C)C)c4o3)C(C)(C)C2)n1 [Example I-227]
0.9 nM | > 2000 nM | 1.4 nM | > 2000 nM | CC1(C)CCC(c2cc(C(C)(C)C)c3oc(C(=O)N4CCN(C(=O)[C@H]5C[C@@](C)(O)C5)CC4(C)C)cc3n2)CC1 [Example I-228]
24 nM | > 2000 nM | 28 nM | > 2000 nM | CC(C)(C)c1cc(C2CCC(F)(F)CC2)nc2cc(C(=O)N3CCN(C(=O)[C@H]4CC[C@@H](C(=O)O)CC4)CC3(C)C)oc12 [Example I-229]
81 nM | > 2000 nM | 150 nM | > 2000 nM | CC(C)(C)c1cc(C2CCC(F)(F)CC2)nc2cc(C(=O)N3CCN(C(=O)c4cnccn4)CC3(C)C)oc12 [Example I-230]
84 nM | > 2000 nM | 160 nM | > 2000 nM | CC(C)(C)c1cc(C2CCC(F)(F)CC2)nc2cc(C(=O)N3CCN(C(=O)c4ncccn4)CC3(C)C)oc12 [Example I-231]
215 nM | > 2000 nM | 200 nM | > 2000 nM | CC(C)(C)c1cc(C2CCC(F)(F)CC2)nc2cc(C(=O)N3CCN(C(=O)CCS(C)(=O)=O)CC3(C)C)oc12 [Example I-232]
6.2 nM | > 2000 nM | 8.1 nM | > 2000 nM | CCC(CC)c1cc(-c2ccc(F)cc2)nc2cc(C(=O)N3CCNC(=O)C3(C)C)oc12 [Example I-233]
22 nM | > 2000 nM | 38 nM | > 2000 nM | CC(C)(C)c1cc(C2CCC(F)(F)CC2)nc2cc(C(=O)N3CCN(C(=O)[C@H]4C[C@@](C)(O)C4)CC3(C)C)oc12 [Example I-234]
5.6 nM | > 2000 nM | 9.4 nM | > 2000 nM | CC(C)(C)c1cc(-c2ccc(F)cc2)nc2cc(C(=O)N3CCN(c4ccn[nH]4)C(=O)C3(C)C)oc12 [Example I-235]
3.5 nM | > 2000 nM | 5 nM | > 2000 nM | CN1CCN(C(=O)c2cc3nc(-c4ccc(Cl)cc4)cc(C(C)(C)C)c3o2)C(C)(C)C1=O [Example I-236]
1.8 nM | > 2000 nM | 2.4 nM | > 2000 nM | [2H]C([2H])([2H])N1CCN(C(=O)c2cc3nc(-c4ccc(Cl)c(F)c4)cc(C(C)(C)C)c3o2)C(C)(C)C1=O [Example I-237]
18 nM | > 2000 nM | 28 nM | > 2000 nM | [2H]C([2H])([2H])N1CCN(C(=O)c2cc3nc(-c4cccc(Cl)c4)cc(C(C)(C)C)c3o2)C(C)(C)C1=O [Example I-238]
6.1 nM | > 2000 nM | 5.4 nM | > 2000 nM | [2H]C([2H])([2H])N1CCN(C(=O)c2cc3nc(-c4ccc(F)c(Cl)c4)cc(C(C)(C)C)c3o2)C(C)(C)C1=O [Example I-239]
2.7 nM | > 2000 nM | 1.8 nM | > 2000 nM | [2H]C([2H])([2H])N1CCN(C(=O)c2cc3nc(-c4ccc(Cl)cc4)cc(C(C)(C)C)c3o2)C(C)(C)C1=O [Example I-240]
1.7 nM | > 2000 nM | 1.6 nM | > 2000 nM | CN1CCN(C(=O)c2cc3nc(-c4ccc(Cl)c(F)c4)cc(C(C)(C)C)c3o2)C(C)(C)C1=O [Example I-241]
19 nM | > 2000 nM | 24 nM | > 2000 nM | CN1CCN(C(=O)c2cc3nc(-c4cccc(Cl)c4)cc(C(C)(C)C)c3o2)C(C)(C)C1=O [Example I-242]
4 nM | > 2000 nM | 7.4 nM | > 2000 nM | CN1CCN(C(=O)c2cc3nc(-c4ccc(F)c(Cl)c4)cc(C(C)(C)C)c3o2)C(C)(C)C1=O [Example I-243]
